Results from patent US20120270770A1, “Anti-angiogenic peptides and their uses” (priority 2010, published 2012).

Test system: ulcerative colitis / IBD and subsequent colon cancer in IL-10 deficient mice
Assay: Murine model of ulcerative colitis: IL-10 deficient mice
Type: in vivo, mouse
Description: An IL-10 deficient strain of mouse was used in the study to determine the ability of JC15-10N (a novel anti-inflammatory molecule) to limit their developing IBD and subsequent colon cancer.
The Wild Type and IL-10 deficient mouse strains used in this study was obtained from Jackson Laboratories and are designated as:
The following groups of animals comprised the present experiment:
Controls: • 1. Controls (129 SvEv 129^−/− untreated) • 2. Controls (129 SvEv 129^−/− Sham/Saline Only) • 3. 129 SvEv Wild-type Controls (untreated) • 4. 129 SvEv Wild-type (Sham/Saline Only)
Treatments with JC15-10N: • 1. Pre-inflammatory (129 SvEv 129^−/−-Prevention-1 injection/week) • 2. Frank inflammatory (129 SvEv 129^−/−-Treatment-1 injection/week) • 3. Pre-inflammatory (129 SvEv 129^−/−-Prevention-1* injections/week) • 4. Frank-inflammatory (129 SvEv 129^−/−-Treatment-1* injections/week) • 5. 129 SvEv Wild-type (Prevention-1 injection/week) • 6. 129 SvEv Wild-type (Treatment-1 injection/week) • 7. 129 SvEv Wild-type (Prevention-1* injections/week) • 8. 129 SvEv Wild-type (Treatment-1* injections/week) • 9 animals/group X 12 groups (including controls)=108 mice×2 repetitions=216 mice; 1 injection/week=0.5 mg/kg subQ and 1* injection/week=5.0 mg/kg subQ injection/week. • In order to encourage inflammation, prior to the start of the experiment, pathogenic murine strains of E. coli and E. faecalis bacteria were administered to the mice in the appropriate treatment groups via oral and anal gavages, designated EC/EF.
Pre-inflammatory (4 wks.) and frank-inflammatory animals (6 wks.-8 wks) were treated with JC15-10N via subcutaneous injections every week for 14 weeks. The compound was diluted in saline to obtain treatment doses of 0.5 and 5.0 mg/kg of body weight respectively and was delivered subcutaneously using tuberculin needles. As controls, some animals were injected with saline only or remained uninjected during the course of the experiment. The procedure described by Hem and coworkers (Laboratory Animals Ltd. 1998. V 32. 364-368) was used to collect 100 micro-liters of blood from the lateral saphenous vein of all test animals once per week over the 14 weeks of peptide therapy. Blood serum was analyzed for changes in the levels of pro-inflammatory and anti-inflammatory cytokines over the 14-week treatment period. At the end of the 14-week treatment period animals were euthanized using a CO2 chamber and flushing the peritoneum with PBS will collect peritoneal lavage fluid. Colons were removed and flushed separately with PBS. Cytokine levels in the peritoneal lavage fluids and colonic fluids of all animals were compared. Following colonic flushes; colons were splayed and examined for inflammatory lesions. Lesions were excised with scissors and the remainder of the colon rolled into gut rolls. […]

[1] = treated IL-10−/− mice vs control IL-10−/− receiving no treatment

FAKKFAKKFK [JC15-10N]
protective effect in IL-10 deficient mice (0.5 and 5.0 mg/kg subQ weekly, 14 weeks, preliminary data, 0.5 mg/kg somewhat better than 5.0 mg/kg): profound protective effect | colitis [1]: significant reduction | presence of advanced disease [1]: significant reduction | subsequent development of colon cancer [1]: significant reduction
